# Assay results as given in BindingDB's records for PubMed 10347254 (R. W. Johnson Pharmaceutical Research Institute, 1999).
# pKi: −log10 of the molar value.
# Molecular target: Histamine H3 receptor (Homo sapiens, UniProt Q9Y5N1)
# Sequence (Q9Y5N1 whole entry): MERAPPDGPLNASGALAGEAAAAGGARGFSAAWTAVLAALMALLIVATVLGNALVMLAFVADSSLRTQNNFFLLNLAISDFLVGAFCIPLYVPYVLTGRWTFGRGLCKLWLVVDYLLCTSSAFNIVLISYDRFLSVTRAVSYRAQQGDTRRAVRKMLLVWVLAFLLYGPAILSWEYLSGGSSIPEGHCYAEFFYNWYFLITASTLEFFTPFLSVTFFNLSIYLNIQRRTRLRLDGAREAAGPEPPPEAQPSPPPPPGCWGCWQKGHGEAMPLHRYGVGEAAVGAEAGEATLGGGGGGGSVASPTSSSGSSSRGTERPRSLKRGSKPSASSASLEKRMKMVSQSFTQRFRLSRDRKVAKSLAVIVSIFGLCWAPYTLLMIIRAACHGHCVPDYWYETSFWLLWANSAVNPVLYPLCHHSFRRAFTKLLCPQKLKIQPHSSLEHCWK
row,Compound,pKi
1,CN/C([CH-][N+](=O)[O-])=[NH+]\CCSCc1ccc(CN(C)C)o1,< 5.00
2,COc1ccc(CN(CCN(C)C)c2ccccn2)cc1,< 5.00
3,c1c[nH]cn1,< 5.00
4,N=C(N)SCCc1cnc[nH]1 [2-(3H-imidazol-4-yl)ethylsulfanylmethanimidamide],< 5.00
5,c1nc(CC2CCNCC2)c[nH]1 [4-(1H-imidazol-4-ylmethyl)piperidine],< 5.00
6,CNCCc1c[nH]cn1 [N(alpha)-Methylhistamine],< 5.00
